{"source": "patent US5543410A", "about": "“Pharmacological use of phthaloylhydrazide derivatives; combination and application thereof” (L.I.M.A.D. Limited, priority 1993, dated 1996)", "key": {"[1]": {"test_system": "piglets affected by dysentery", "assay": "dysentery in piglets", "assay_type": "in vivo", "method": "Experiments were performed with piglets weighing from 30 to 40 kgs, which were affected by dysentery.\nNevertheless, symptoms reappeared six to seven hours later in one group of animals. This factor rendered repeated administration of the drug necessary."}, "[2]": {"test_system": "Salmonella typhinurium endotoxin"}, "[3]": {"test_system": "TA 100, TA 102, and TA 97 S. typhi strains", "assay": "Ames' bacterial mutagenicity test", "details": "0.01 mg/ml to 2 mg/ml, rat liver microsome activation"}, "[4]": {"assay": "general pharmacological / toxicological assessment", "assay_type": "in vivo"}, "[5]": {"test_system": "convulsions caused by Corazolum and strychnine", "details": "30 and 60 mg/kg"}, "[6]": {"test_system": "suppuration and abscesses affecting the jaw", "details": "one day after"}, "[7]": {"test_system": "anal fissures", "method": "Similarly, anal fissures have represented a difficult problem for modern medicine to resolve. In this instance, the inflammatory component is associated with a morphological defect.\nThe drug was administered to this group of patients in the form of suppositories, in doses of 100 mg every twelve hours, during a five-day period."}, "[8]": {"test_system": "skin diseases", "details": "1 to 2 percent solution, two or three days"}, "[9]": {"test_system": "dermatitis of unknown etiology"}, "[10]": {"test_system": "perineal cutaneous melanoma"}, "[11]": {"test_system": "psoriasis", "details": "2 to 5 mg/kg"}, "[12]": {"details": "in vivo"}, "[13]": {"test_system": "erysipelas", "assay": "erysipelas"}, "[14]": {"test_system": "non-specific ulcerative colitis and Crohn's disease", "method": "These patients complained of periodic worsening of their symptoms over periods of three to five years.\n100 mg per day of the drug was administered intravenously to these patients for three days.\nOn subsequent days, intramuscular administration of the drug was provided once daily, along with a 100 mg rectal suppository."}, "[15]": {"test_system": "anal adenocarcinoma", "text": "Kh., a patient who was […], had been diagnosed with an anal adenocarcinoma seven months earlier.\nThe diagnosis had been verified histologically. The patient cited pain in the anus, constipation, difficulty in defecating, and secretion of mucus and blood from the anus. On account of the patient's categorical refusal to undergo surgery for abdominoperineal excision of the rectum, radiation therapy had been provided in doses of […]. […] Forty days later, the patient underwent another cycle of radiation therapy, with doses of […]. During the next thirty days, the drug was administered in doses of 100 mg every four hours, in the form of rectal suppositories. […] For the next thirty days, the dosage of the drug was increased, and intramuscular administration of 100 mg per day was provided for this patient, along with a rectal suppository (100 mg)."}, "[16]": {"assay": "pharmacokinetics, plasma half-life", "assay_type": "in vivo"}, "[17]": {"test_system": "suppuration of a paracolostomy incision", "method": "The patient cited pain in the region affected by infiltration, and an increase in body temperature was observed. A suppository containing 200 mg of the drug was applied to the incision. […] An identical dose of the drug was administered again twelve hours later."}, "[18]": {"test_system": "male rats", "details": "rat, in vivo"}, "[19]": {"test_system": "chronic inflammation of female genitalia", "details": "100 mg once each day"}, "[20]": {"assay": "passage through living membranes / microbial membranes"}, "[21]": {"test_system": "tumor necrosis factor (TNF)"}, "[22]": {"test_system": "macrophages", "details": "in vitro and in vivo; SV-40 affected cancer cells, glioma cultures"}, "[23]": {"test_system": "viral hepatitis B", "method": "Rectal suppositories containing the drug, which was to be administered in doses of 100 mg per day for ten days, were prescribed for this patient."}, "[24]": {"details": "15 mg/kg intravenous, when clinical manifestations appeared"}, "[25]": {"details": "after five to six days of treatment"}, "[26]": {"details": "100 mg intramuscular on alternating days"}, "[27]": {"details": "1 percent ointment plus 100 mg suppositories"}, "[28]": {"details": "100 mg per day rectal suppositories"}}, "note": "Read-outs that look alike come from different tables or passages of the source.", "data": [{"smiles": "Nc1cccc2c(=O)[nH][nH]c(=O)c12", "values": [{"measurement": "effectiveness in alleviating diarrhea", "setting": "[1]; 50 mg/kg, fourth series", "value": "limited effectiveness in alleviating diarrhea"}, {"measurement": "therapeutic effect", "setting": "[1]; 10, 25, and 50 mg/kg, third series", "value": "relatively insignificant"}, {"measurement": "reappearance of dysentery symptoms", "setting": "[1]; 20 and 50 mg/kg, second series", "value": "symptoms of dysentery reappeared at the end of the first day"}, {"measurement": "instances with therapeutic effects", "setting": "[1]; 20 and 50 mg/kg, sixteen animals, second series", "value": "six"}, {"measurement": "diarrhea", "setting": "[2]; [24]", "value": "diarrhea ceased completely"}, {"measurement": "time to reduction of intoxication symptoms", "setting": "[2]; [24]", "value": "five to ten"}, {"measurement": "alleviation of intoxication symptoms and diarrhea", "setting": "[2]; 25 mg/kg", "value": "complete alleviation of intoxication symptoms and diarrhea"}, {"measurement": "intoxication symptoms (conclusion)", "setting": "[2]; 15 to 25 mg/kg", "value": "prevent or eliminate intoxication symptoms"}, {"measurement": "alleviation of symptoms", "setting": "[2]; drug five minutes after endotoxin, third series", "value": "partial alleviation of symptoms"}, {"measurement": "inhibitory or mutagenic activity", "setting": "[3]", "value": "did not possess inhibitory or mutagenic activity"}, {"measurement": "toxicity", "setting": "[4]; acceptable dosages", "value": "wholly non-toxic"}, {"measurement": "level of pharmacological activity", "setting": "[4]; determined experimentally", "value": "higher level of pharmacological activity"}, {"measurement": "prevention of convulsions", "setting": "[5]", "value": "did not prevent convulsions"}, {"measurement": "therapeutic effect", "setting": "[6]; 1 mg/kg", "value": "no therapeutic effect had occurred"}, {"measurement": "patients with therapeutic effect", "setting": "[6]; 2 mg/kg", "value": "four"}, {"measurement": "patients with therapeutic effect", "setting": "[6]; 4 mg/kg, each of the six patients", "value": "six"}, {"measurement": "time until pain ceased", "setting": "[7]; 100 mg suppositories every twelve hours", "value": "twenty to thirty"}, {"measurement": "recurrences", "setting": "[7]; [25]", "value": "Recurrences were not observed"}, {"measurement": "regeneration of the mucosae", "setting": "[7]; [25]", "value": "regeneration of the mucosae was visually observable"}, {"measurement": "defecation and sphincter spasms", "setting": "[7]; after the third suppository", "value": "defecation became painless, and spasms affecting the sphincter diminished"}, {"measurement": "recovery", "setting": "[7]; by the fifth day", "value": "the patients had practically recovered"}, {"measurement": "other symptoms", "setting": "[7]; rectal administration", "value": "other symptoms were also eliminated by the end of the first day of treatment"}, {"measurement": "time to significant alleviation of the pain syndrome", "setting": "[7]; rectal administration", "value": "twenty to forty"}, {"measurement": "elimination of symptoms", "setting": "[8]", "value": "sufficient to eliminate symptoms of various diseases"}, {"measurement": "time to completed epithelization", "setting": "[9]; 30 mg emulsion three times daily, 50 mg suppositories on alternating days", "value": "fourteenth"}, {"measurement": "affected cutaneous areas", "setting": "[9]; after the second day", "value": "began to become drier"}, {"measurement": "infiltration in the region of the postoperative scar", "setting": "[10]; 100 mg intramuscular every day, checkup thirty days later", "value": "disappearance of infiltration in the region of the postoperative scar was observed"}, {"measurement": "abnormal salivation", "setting": "[10]; [26]", "value": "On the third day after the commencement of treatment, abnormal salivation began"}, {"measurement": "vomiting and diuresis", "setting": "[10]; [26]", "value": "vomiting occurred on the fourth day, along with an increase in diuresis"}, {"measurement": "cessation of symptoms (salivation, vomiting, diuresis)", "setting": "[10]; in vivo", "value": "gradually ceased on the thirteenth and fourteenth days"}, {"measurement": "development of psoriasis", "setting": "[11]", "value": "did not substantially influence the development of psoriasis"}, {"measurement": "CL renal", "setting": "[12]", "value": "50 to 80", "unit": "mL/min"}, {"measurement": "time until congestion and edema had diminished", "setting": "[13]; [27]", "value": "twenty-four"}, {"measurement": "time until pain became less intense", "setting": "[13]; [27]", "value": "five to six"}, {"measurement": "difficulties", "setting": "[13]; by the end of the sixth day", "value": "the patient no longer cited difficulties"}, {"measurement": "time until abdominal and joint pain lessened", "setting": "[14]; 100 mg per day intravenous", "value": "Thirty"}, {"measurement": "frequency of defecation", "setting": "[14]; first three days", "value": "frequency of defecation was reduced"}, {"measurement": "frequency of defecation", "setting": "[14]; fourteenth day", "value": "once or twice"}, {"measurement": "rectosigmoidoscopy finding", "setting": "[14]; in vivo", "value": "did not reveal the presence of pus or blood, although traces of an inflammatory process were observed within mucous membranes"}, {"measurement": "frequency of defecation", "setting": "[14]; sixth day", "value": "two or three"}, {"measurement": "pain and skin eruptions", "setting": "[14]; sixth day", "value": "They were no longer experiencing pain, their skin eruptions had disappeared"}, {"measurement": "tumor size", "setting": "[15]; 100 mg every four hours rectal, thirty days, after radiation", "value": "reduction of the tumor was observed"}, {"measurement": "reduction of anal tumor in relation to its initial dimensions", "setting": "[15]; 100 mg intramuscular per day plus 100 mg suppository, further thirty days", "value": "two-thirds"}, {"measurement": "tumor dimensions and intoxication (conclusion)", "setting": "[15]; combination with radiation therapy", "value": "reduction of the tumor's dimensions was therefore obtained within a brief period and symptoms of intoxication were eliminated"}, {"measurement": "general condition", "setting": "[15]; in vivo", "value": "an improvement of the patient's general condition was observed"}, {"measurement": "duration of activity in hydrophobic phase of living membranes", "setting": "[16]; in vivo", "value": "remains active for several hours"}, {"measurement": "half-life", "setting": "[16]; intramuscular and rectal", "value": "forty to sixty"}, {"measurement": "half-life within blood plasma", "setting": "[16]; intravenous", "value": "five to fifteen"}, {"measurement": "time to decline of temperature", "setting": "[17]; 200 mg suppository", "value": "Six"}, {"measurement": "time until pain ceased", "setting": "[17]; 200 mg suppository applied to incision", "value": "twenty to thirty"}, {"measurement": "wound", "setting": "[17]; six days of treatment", "value": "the wound was wholly devoid of pus"}, {"measurement": "edema within soft tissues", "setting": "[17]; twenty-one hours after commencement", "value": "had decreased significantly"}, {"measurement": "average fluctuations in blood pressure levels in comparison with initial levels", "setting": "[18]", "value": "2.79±0.72"}, {"measurement": "time to return of blood pressure to initial level", "setting": "[18]", "value": "thirty"}, {"measurement": "rise in blood pressure in relation to the initial level", "setting": "[18]; iv", "value": "1.57±5.93", "unit": "%"}, {"measurement": "time to healing", "setting": "[19]", "value": "eighth"}, {"measurement": "time until vaginal secretions ceased completely", "setting": "[19]", "value": "fifth"}, {"measurement": "therapeutic effect", "setting": "[19]; second day", "value": "the therapeutic effect was observable"}, {"measurement": "passage through the hydrophobic phase of living membranes", "setting": "[20]", "value": "easily passing through the hydrophobic phase of living membranes"}, {"measurement": "action of TNF in mutated cells", "setting": "[21]", "value": "intensifies the action of the tumor necrosis factor (TNF) in mutated cells"}, {"measurement": "transformation of macrophages into killer cells", "setting": "[22]", "value": "transformation of a certain portion of macrophages into killer cells"}, {"measurement": "time to improvement (lethargy, pain disappeared)", "setting": "[23]; [28]", "value": "third"}, {"measurement": "time to normal biochemical blood data", "setting": "[23]; [28]", "value": "tenth"}, {"measurement": "chronic development of the process", "setting": "[23]; six subsequent months", "value": "absence of chronic development of the process"}, {"measurement": "bile pigments reaction", "setting": "[23]; tenth day", "value": "negative"}, {"measurement": "ultrasound examination of liver", "setting": "[23]; tenth day", "value": "No pathological conditions affecting the liver were observed"}, {"measurement": "symptoms and hepatic functions", "setting": "[23]; volunteers, 2 to 5 mg/kg per day, initial phase of chronic stage", "value": "symptoms were eliminated and previously impaired hepatic functions were restored"}]}]}
